Results published in the NIST ThermoML archive (doi:10.1016/j.jct.2018.10.015).

Experiment: xn = mol fraction of the nth substance listed
Conditions: 101.3 kPa, Liquid; for viscosity: Concentric cylinders viscometry; for mass density: Vibrating tube method

CCn1cc[n+](C)c1C.O=S(=O)([N-]S(=O)(=O)C(F)(F)F)C(F)(F)F + CCOC(=O)OCC
Conditions	mass density [kg/m3]	viscosity [mPa·s]
293.15 K, x1 = 0.1731	1150.1	3.168
293.15 K, x1 = 0.302	1242.2	6.382
293.15 K, x1 = 0.4028	1298.8	10.53
293.15 K, x1 = 0.4991	1343.7	16.14
293.15 K, x1 = 0.6093	1387	25.06
293.15 K, x1 = 0.7039	1418.8	35.42
293.15 K, x1 = 0.7951	1445.6	48.11
293.15 K, x1 = 0.8901	1470.6	64.72
293.15 K, x1 = 1	1495.8	89.88
298.15 K, x1 = 0.1731	1144.8	2.871
298.15 K, x1 = 0.302	1237.1	5.646
298.15 K, x1 = 0.4028	1293.7	9.149
298.15 K, x1 = 0.4991	1338.7	13.79
298.15 K, x1 = 0.6093	1382	21.02
298.15 K, x1 = 0.7039	1413.9	29.27
298.15 K, x1 = 0.7951	1440.8	39.24
298.15 K, x1 = 0.8901	1465.8	52.12
298.15 K, x1 = 1	1491	71.34
303.15 K, x1 = 0.1731	1139.5	2.615
303.15 K, x1 = 0.302	1232	5.032
303.15 K, x1 = 0.4028	1288.6	8.021
303.15 K, x1 = 0.4991	1333.7	11.9
303.15 K, x1 = 0.6093	1377.1	17.84
303.15 K, x1 = 0.7039	1409	24.52
303.15 K, x1 = 0.7951	1435.9	32.49
303.15 K, x1 = 0.8901	1461	42.65
303.15 K, x1 = 1	1486.3	57.64
308.15 K, x1 = 0.1731	1134.2	2.394
308.15 K, x1 = 0.302	1226.9	4.515
308.15 K, x1 = 0.4028	1283.6	7.089
308.15 K, x1 = 0.4991	1328.7	10.37
308.15 K, x1 = 0.6093	1372.2	15.31
308.15 K, x1 = 0.7039	1404.1	20.78
308.15 K, x1 = 0.7951	1431.1	27.23
308.15 K, x1 = 0.8901	1456.2	35.38
308.15 K, x1 = 1	1481.5	47.26
313.15 K, x1 = 0.1731	1128.9	2.201
313.15 K, x1 = 0.302	1221.7	4.076
313.15 K, x1 = 0.4028	1278.5	6.312
313.15 K, x1 = 0.4991	1323.7	9.113
313.15 K, x1 = 0.6093	1367.3	13.27
313.15 K, x1 = 0.7039	1399.3	17.81
313.15 K, x1 = 0.7951	1426.2	23.1
313.15 K, x1 = 0.8901	1451.4	29.72
313.15 K, x1 = 1	1476.7	39.24
318.15 K, x1 = 0.1731	1123.6	2.032
318.15 K, x1 = 0.302	1216.5	3.7
318.15 K, x1 = 0.4028	1273.5	5.657
318.15 K, x1 = 0.4991	1318.8	8.07
318.15 K, x1 = 0.6093	1362.4	11.6
318.15 K, x1 = 0.7039	1394.4	15.41
318.15 K, x1 = 0.7951	1421.4	19.8
318.15 K, x1 = 0.8901	1446.6	25.24
318.15 K, x1 = 1	1472	33
323.15 K, x1 = 0.1731	1118.3	1.882
323.15 K, x1 = 0.302	1211.3	3.375
323.15 K, x1 = 0.4028	1268.4	5.102
323.15 K, x1 = 0.4991	1313.8	7.196
323.15 K, x1 = 0.6093	1357.5	10.22
323.15 K, x1 = 0.7039	1389.6	13.45
323.15 K, x1 = 0.7951	1416.6	17.14
323.15 K, x1 = 0.8901	1441.8	21.66
323.15 K, x1 = 1	1467.2	28.05
328.15 K, x1 = 0.1731	1112.9	1.75
328.15 K, x1 = 0.302	1206.2	3.098
328.15 K, x1 = 0.4028	1263.4	4.633
328.15 K, x1 = 0.4991	1308.9	6.468
328.15 K, x1 = 0.6093	1352.5	9.095
328.15 K, x1 = 0.7039	1384.7	11.86
328.15 K, x1 = 0.7951	1411.8	15
328.15 K, x1 = 0.8901	1437	18.81
328.15 K, x1 = 1	1462.4	24.16
